Data as given in patent US6762164B2, “Use of 3-position cyclosporin derivatives for hair growth” (LG Household & Health Care Ltd., priority 2001, dated 2004).

Test system: Female C57BL/6 mice
Assay: Test for hair growth promoting effect: hair regrowth on shaved backs of mice
Format: in vivo
Conditions: shaved back, 100 μl (conc. 0.1% w/v) applied once a day for 30 days, visual approach
Procedure: Female C57BL/6 mice of ages 6 to 7 weeks were utilized. After removing hairs on the middle of the back with an electric shaver, the mice were weighed and randomly assigned to the test groups with an even distribution of weights. The mice were given one day for adaptation. From the next day, mice were applied once a day on their backs with cyclosporin A and the cyclosporin A derivatives (Compounds 1 to 7) prepared by HPLC in Example 1 in amounts of 100 μl (conc. 0.1% w/v) for 30 days. The results were determined by visual approach, in terms of degrees of hair regrowth. With respect to respective hair-removed areas, rates of new hair growth were examined and compared.

Substance	Area rate of hair regrowth (%)
[N-methyl-O-propenyl-D-Ser^3] cyclosporin A [Compound 6]	94%
[D-2-(methylamino)hexa-4-ynoyl^3] cyclosporin A [Compound 3]	95%
[N-methyl-D-Nva^3] cyclosporin A [Compound 2]	91%
[N-methyl-D-Ser^3] cyclosporin A [Compound 7]	90%
[N-methyl-D-Abu3] cyclosporin A [Compound 1]	95%
cyclosporin A [reference compound]	91%
[D-2-(methylthio)-Sar^3] cyclosporin A [Compound 5]	93%
[D-2-(methylamino)pent-4-ynoyl^3] cyclosporin A [Compound 4]	96%
